Data from publication PMC6528465 (ACS infectious diseases, 2018).

Tested on: Mtb K204
Format: cell-based, Mycobacterium tuberculosis
Settings: no inhibitor

For `NC[C@H]1O[C@H](O[C@H]2[C@H](O)[C@@H](O[C@H]3O[C@H](CO)[C@@H](O)[C@H](N)[C@H]3O)[C@H](N)C[C@@H]2N)[C@H](O)[C@@H](O)[C@@H]1O` [KAN, kanamycin], which “K204 MICKAN” value is on record?
The value was >10 µg/mL.
